Consider two compounds from patent US11484601B2, “Targeting M2-like tumor-associated macrophages by using melittin-based proapoptotic peptide” (TWI[…]., priority 2018, dated 2022).

Assay [1] concerns M2 macrophage. The experiment in a line: Annexin V-FITC / MitoTracker flow cytometry, M2 macrophage. Format: cell-based, mouse. Conditions: 0.8 μM peptide, 6 hours. As for the experimental part: More specifically, the cells were stained with Annexin V-fluorescein isothiocyanate (FITC; BD Biosciences, CA, USA) and MitoTracker RedBOX (Invitrogen). The cells were inoculated at 5×10^5 cells/well, onto a 24-well plate. The next day, 0.8 μM peptide was applied thereto. In 1, 3 and 6 hours after the application, the cells were reacted with 250 nM MitoTracker for 1 hour in a serum-free culture solution. Thereafter, the cells were collected and reacted with Annexin V again. The reacted cells were measured with BD FACSCalibur, and were analyzed via FlowJo software (Treestar, Inc., CA, USA). MitoTracker could pass through protoplasmic membrane depending on the membrane charge and then accumulated within the mitochondria. In other words, staining may be identified in the mitochondria membrane of living cells, but staining may be difficult in cells where apoptosis occurs due to membrane disturbance.

In assay [2] the test system is RAW264.7 cells differentiated into M2 cells. The assay is described as follows: XF24 Extracellular Flux metabolic measurement (OCR, ECAR). Format: cell-based, mouse. Conditions: 1 μM peptide, compared to PBS-treated group. As to the method: […] assay was performed to measure the effect of MEL-dKLA on the metabolic action of mitochondria.
More specifically, the metabolic action was measured using an XF24 Extracellular Flux analyzer (Agilent, CA, USA). RAW264.7 cells were differentiated into M2 cells which were inoculated into XF-24 plates (3×10^4 cells/well). The next day, in order to minimize the potential stress due to changes in the situation, 1 μM of each peptide was applied thereto. Then, the cells were incubated in a 37° C. incubator under 5% CO2 condition. […] Then, the oxygen consumption rate (OCR) and the extracellular acidification rate (ECAR) were measured in real time.
Further, OCR was measured at a time point corresponding to 12 times. The basal state was measured at a time point corresponding to 3 times. Then, ATP-connected respiration after oligomycin addition was measured at a time point corresponding to further 3 times. Then, the maximum respiration after FCCP addition was measured at a time point corresponding to further 3 times. Then, a point at which non-mitochondrial respiration occurred after addition of Rot/AA was measured at a time point corresponding to remaining 3 times. Thus, the mitochondria respiration ability was measured. ECAR indicating the glycolysis rate was measured at the same time points.

Assay [3] relates to 4T1 breast cancer cells. The assay is described as follows: 4T1 breast cancer model in BALB/c mice, lung nodules and H&E. Format: in vivo, mouse. Particulars: 175 nmol/kg at 3-day intervals; for nodules on the lung surface: 15 days after cancer cell injection. As to the method:
More specifically, 4T1 breast cancer cells (1×10^5) were injected into BALB/c mice. Then, 3 days later, 175 nmol/kg of each of PBS, dKLA, MEL and MEL-dKLA was injected into each group at 3-day intervals. To investigate the level of metastasis and nodules on the lung surface, on 15 days after cancer cell injection, mice were sacrificed and the nodules on the lung surface were identified.
More specifically, for H&E staining, we immersed the tissue in a hematoxylin solution, stained the cell nucleus with a purple color. Then, we removed a remaining-stained portion except for the nucleus with an acidic alcohol solution, and immersed the tissue again in an eosin-added solution to stain the cytoplasm with a pink color. Then, the structure of the cell was observed.

In assay [4] the test system is 4T1-luciferase breast cancer cells. The assay is described as follows: 4T1-luciferase tail vein metastaticity model in BALB/c mice. It is filed as in vivo, mouse. Conditions: 175 nmol/kg once every 3 days, 15 days after tail vein injection. As for the experimental part: Additionally, 4T1-luciferase breast cancer cells (1×10^5) were injected into BALB/c mice through a tail vein in order to identify metastaticity of tumor cells. 3 days after the injection, 175 nmol/kg of each of PBS, dKLA, MEL and MEL-dKLA was injected into each group once every 3 days. 15 days after the cancer cell injection, D-luciferin as a substrate of luciferase enzyme was diluted to a concentration of 40 mg/ml, and then 100 μl thereof was administered to mice in an intraperitoneal administration mode, Then, reaction occurred for about 15 minutes. NightOwl (Berthold Technologies) was used in combination with photographs of mice to analyze the level of settlement and metastasis of cancer cells to the whole body and lungs.

Assay [5] has as its system HIF-1α. The assay is described as follows: Quantitative real-time PCR of lung tissue, HIF-1α. Format: in vivo, mouse. Particulars: vs PBS-treated group. As to the method: (§1) To measure the ability of MEL-dKLA to inhibit tumor metastasis, expression levels of CD44 known to interact with extracellular matrix ligand to promote metastasis and invasion and thus to be widely expressed in cancer, CCL22 known as M2-type macrophage marker, HIF-1α known as a marker of angiogenesis, metastasis and invasion, Ym1 as a marker of M2-type macrophage, and MMP-9 involved in the migration and settlement of tumor cells were measured via quantitative real-time PCR.
(§2) More specifically, RNA was extracted from lung tissue using an easy-BLUE RNA extraction kit (iNtRON Biotechnology, Korea). Then, cDNA was synthesized according to the manual for cyclescript reverse transcriptase (Bioneer, Korea). cDNA synthesis conditions were as follows: 15 seconds at 95, 10 seconds at 55, and 10 seconds at 72. Each reaction was conducted 3 times. […] Quantitative real-time PCR was performed using the SensiFAST SYBR no-Rox kit (Bioline, Korea).

Assay [6] has as its system MMP-9. The experiment in a line: Quantitative real-time PCR of lung tissue, MMP-9. Format: in vivo, mouse. As for the experimental part: as §1, §2

With “d[KLAKLAKKLAKLAK] (D-amino acids) [dKLA, pro-apoptotic peptide KLA, used as control]”, in assay [1], the “cell death of M2 macrophage (Annexin V / MitoTracker)” value is given as “no significant difference was found”. The “basal respiration (baseline OCR)” value in assay [2] is recorded as “no change in baseline OCR”. Besides, in assay [3], the “metastasis to the lung by H&E staining” value is “tumor cells were widely spread and metastasis occurred”; the “nodules on the lung surface” value is “no reduction thereof was observed”. For the same compound, the “metastaticity, luminescence of cancer cells throughout the whole body” value in assay [4] is listed as “measured at a high level throughout the body”. The “expression of HIF-1α” value in assay [5] is given as “not significantly different”. In assay [6], the “expression of MMP-9” value is “high”.
Regarding `CC[C@H](C)[C@H](NC(=O)CN)C(=O)NCC(=O)N[C@@H](C)C(=O)N[C@H](C(=O)N[C@@H](CC(C)C)C(=O)N[C@@H](CCCCN)C(=O)N[C@H](C(=O)N[C@@H](CC(C)C)C(=O)N[C@H](C(=O)N[C@H](C(=O)NCC(=O)N[C@@H](CC(C)C)C(=O)N1CCC[C@H]1C(=O)N[C@@H](C)C(=O)N[C@@H](CC(C)C)C(=O)N[C@H](C(=O)N[C@@H](CO)C(=O)N[C@@H](Cc1c[nH]c2ccccc12)C(=O)N[C@H](C(=O)N[C@@H](CCCCN)C(=O)N[C@@H](CCCNC(=N)N)C(=O)N[C@@H](CCCCN)C(=O)N[C@@H](CCCNC(=N)N)C(=O)N[C@@H](CCC(N)=O)C(=O)N[C@@H](CCC(N)=O)C(N)=O)[C@@H](C)CC)[C@@H](C)CC)[C@@H](C)O)[C@@H](C)O)C(C)C)C(C)C` [MEL], the “cell death of M2 macrophage (Annexin V / MitoTracker)” value in assay [1] was “no significant difference was found”. The “basal respiration (baseline OCR)” value in assay [2] is given as “no change in baseline OCR”. Besides, in assay [3], the “metastasis to the lung by H&E staining” value is given as “relatively smaller metastasis occurred” and the “nodules on the lung surface” value was “no reduction thereof was observed”. For the same compound, in assay [3] (lungs), the number of nodules entry is listed as “no significant decrease”. For the same compound, the “metastaticity, luminescence of cancer cells throughout the whole body” value in assay [4] is listed as “metastasis was reduced”. For the same compound, the “expression of HIF-1α” value in assay [5] is on record as “not significantly different”. Further, in assay [6], the “expression of MMP-9” value is listed as “lower compared to that in the PBS-treated group”.
